How the values were obtained:
Aβ42 (β-amyloid peptide) [1] = target: T1, Aβ42 (β-amyloid peptide) (Homo sapiens, UniProt P05067); assay: inhibition of Aβ[…] self-aggregation, MS monomer quantification at […] (also ThT assay); assay type: biochemical; conditions: read-out: inhibition of Aβ42 self-aggregation / % inhibition by MS ± SD [I] = 50 μM ^b
T1 construct: gene APP; Aβ42

Aβ42 (β-amyloid peptide) [2] = target: T1, Aβ42 (β-amyloid peptide); assay: MS and LC-MS/MS detection of covalent adduct with Aβ[…]; ThT aggregation assay (IC50); assay type: biochemical

T1 sequence (P05067 672-713): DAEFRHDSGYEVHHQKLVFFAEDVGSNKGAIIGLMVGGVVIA

Row | Compound | inhibition at 50 µM (Aβ42 (β-amyloid peptide) [1]) | IC50 (Aβ42 (β-amyloid peptide) [2])
1 | CCCSC(=O)/C=C/c1ccc(O)c(O)c1 [compound 1] | 56.9% | –
2 | CCCSC(=O)/C=C/c1cc(O)ccc1O [compound 3, para-hydroquinone 3] | – | 10.2 µM
